In patent publication US9856279B2 (AGIOS PHARMACEUTICALS, INC, priority 2011, dated 2018):

target: IDH1 R132H (Homo sapiens, UniProt O75874, R132H); assay: Assay for IDH1 R132H inhibitors (NADPH/aKG, resazurin detection); assay type: biochemical; conditions: Table 3; enzyme assay, 50 minutes at room temperature; read-out: IC50 (IDH1 R132H Inhibition)
Description: Assays were conducted in a volume of 76 μl assay buffer (150 mM NaCl, 10 mM MgCl2, 20 mM Tris pH 7.5, 0.03% bovine serum albumin) as follows in a standard 384-well plate: To 25 ul of substrate mix (8 uM NADPH, 2 mM aKG), 1 μl of test compound was added in DMSO. The plate was centrifuged briefly, and then 25 μl of enzyme mix was added (0.2 μg/ml IDH1 R132H) followed by a brief centrifugation and shake at 100 RPM. The reaction was incubated for 50 minutes at room temperature, then 25 μl of detection mix (30 μM resazurin, […]) was added and the mixture further incubated for 5 minutes at room temperature. The conversion of resazurin to resorufin was detected by fluorescent spectroscopy at Ex544 Em590 c/o 590.

IDH1 R132H, sequence (O75874 whole entry R132H): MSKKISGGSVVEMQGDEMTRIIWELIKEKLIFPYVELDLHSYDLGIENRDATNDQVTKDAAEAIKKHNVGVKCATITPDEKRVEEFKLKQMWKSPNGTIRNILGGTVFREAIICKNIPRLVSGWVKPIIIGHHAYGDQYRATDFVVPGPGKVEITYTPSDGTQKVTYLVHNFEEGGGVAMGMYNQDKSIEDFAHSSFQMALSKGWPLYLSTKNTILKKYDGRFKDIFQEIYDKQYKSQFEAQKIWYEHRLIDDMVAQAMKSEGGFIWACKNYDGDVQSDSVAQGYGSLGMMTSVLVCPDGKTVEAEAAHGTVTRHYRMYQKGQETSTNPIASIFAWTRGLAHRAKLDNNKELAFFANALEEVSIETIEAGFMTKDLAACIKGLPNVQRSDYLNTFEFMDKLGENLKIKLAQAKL

SMILES	IC50
CC(C)c1nc(N2CCN(C(=O)Cc3ccccc3)C(C)C2)c(C#N)cc1-c1ccccc1 (stereo in doubt) [Compound 145, (R)-6-isopropyl-2-(3-methyl-4-(2-phenylacetyl)piperazin-1-yl)-5-phenylnicotinonitrile]	1 to 5 µM
CC(C)c1cc(-c2ccccc2)c(C#N)c(N2CCN(C(=O)c3ccccc3)CC2)n1 [Compound 100, 2-(4-benzoylpiperazin-1-yl)-6-isopropyl-4-phenylnicotinonitrile]	5 to 15 µM
CC(C)c1cc(-c2ccccc2)c(C#N)c(N2C[C@@H](C)N(C(=O)c3ccccc3)[C@@H](C)C2)n1 [Compound 101, 2-((3S,5R)-4-benzoyl-3,5-dimethylpiperazin-1-yl)-6-isopropyl-4-phenylnicotinonitrile]	1 to 5 µM
CC(C)c1cc(-c2ccccc2)c(C#N)c(N2C[C@@H](C)N(C(=O)c3ccco3)[C@@H](C)C2)n1 [Compound 102, 2-((3S,5R)-4-(furan-2-carbonyl)-3,5-dimethylpiperazin-4-yl)-6-isopropyl-4-phenylnicotinonitrile]	1 to 5 µM
CC(C)c1cc(-c2ccccc2)nc(N2CCN(C(=O)c3ccco3)CC2)c1C#N [Compound 103, 2-(4-(furan-2-carbonyl)piperazin-1-yl)-4-isopropyl-6-phenylnicotinonitrile]	5 to 15 µM
COc1ccccc1-c1cc(C(C)C)nc(N2CCN(C(=O)c3ccco3)CC2)c1C#N [Compound 104, 2-(4-(furan-2-carbonyl)piperazin-1-yl)-6-isopropyl-4-(2-methoxyphenyl)nicotinonitrile]	5 to 15 µM
COc1ccccc1-c1cc(C(C)C)nc(N2CCN(C(=O)c3ccccc3)CC2)c1C#N [Compound 105, 2-(4-benzoylpiperazin-1-yl)-6-isopropyl-4-(2-methoxyphenyl)nicotinonitrile]	1 to 5 µM
COc1ccccc1-c1cc(C(C)C)nc(N2CCN(C(=O)c3c[nH]c4ccccc34)CC2)c1C#N [Compound 106]	5 to 15 µM
CC(C)c1cc(-c2ccccc2)c(C#N)c(N2CCN(C(=O)c3ccco3)C(C)C2)n1 (stereo not shown) [Compound 107, 2-(4-(furan-2-carbonyl)-3-methylpiperazin-1-yl)-6-isopropyl-4-phenylnicotinonitrile]	1 to 5 µM
CC(C)c1cc(-c2ccccc2)nc(N2CCN(C(=O)c3ccco3)C(C)C2)c1C#N (stereo not shown) [Compound 108, 2-(4-(furan-2-carbonyl)-3-methylpiperazin-1-yl)-4-isopropyl-6-phenylnicotinonitrile]	5 to 15 µM
CC(C)c1nc(N2CCN(C(=O)c3ccco3)CC2)c(C#N)cc1-c1ccccc1 [Compound 109, 2-(4-(furan-2-carbonyl)piperazin-1-yl)-6-isopropyl-5-phenylnicotinonitrile]	5 to 15 µM
CC(C)c1cc(-c2ccccc2)c(C#N)c(N2CCN(C(=O)c3ccoc3)C(C)C2)n1 (stereo not shown) [Compound 110, 2-(4-(furan-3-carbonyl)-3-methylpiperazin-1-yl)-6-isopropyl-4-phenylnicotinonitrile]	1 to 5 µM
CC(C)c1cc(-c2ccccc2)nc(N2CCN(C(=O)c3ccoc3)C(C)C2)c1C#N (stereo not shown) [Compound 111]	5 to 15 µM
COc1ccccc1-c1cc(C(C)C)nc(N2CCN(C(=O)c3ccoc3)CC2)c1C#N [Compound 113, 2-(4-(furan-3-carbonyl)piperazin-1-yl)-6-isopropyl-4-(2-methoxyphenyl)nicotinonitrile]	5 to 15 µM
CC(C)c1cc(-c2cccc(F)c2)c(C#N)c(N2CCN(C(=O)c3ccco3)CC2)n1 [Compound 114, 4-(3-fluorophenyl)-2-(4-(furan-2-carbonyl)piperazin-1-yl)-6-isopropylnicotinonitrile]	1 to 5 µM
CC(C)c1cc(-c2cccc(F)c2)c(C#N)c(N2CCN(C(=O)c3ccoc3)CC2)n1 [Compound 115, 4-(3-fluorophenyl)-2-(4-(furan-3-carbonyl)piperazin-1-yl)-6-isopropylnicotinonitrile]	1 to 5 µM
CC(C)c1cc(-c2cccc(F)c2)c(C#N)c(N2CCN(C(=O)c3c[nH]c4ccccc34)CC2)n1 [Compound 116, 2-(4-(1H-indole-3-carbonyl)piperazin-1-yl)-4-(3-fluorophenyl)-6-isopropylnicotinonitrile]	5 to 15 µM
CC1CN(c2nc(-c3ccccc3)c(-c3ccccc3)cc2C#N)CCN1C(=O)c1ccco1 (stereo not shown) [Compound 117, 2-(4-(furan-2-carbonyl)-3-methylpiperazin-1-yl)-5,6-diphenylnicotinonitrile]	5 to 15 µM
CC1CN(c2nc(-c3ccccc3)c(-c3ccccc3)cc2C#N)CCN1C(=O)c1ccoc1 (stereo not shown) [Compound 118, 2-(4-(furan-3-carbonyl)-3-methylpiperazin-1-yl)-5,6-diphenylnicotinonitrile]	5 to 15 µM

SMILES	IC50
CC(C)c1nc(N2CCN(C(=O)c3ccco3)C(C)C2)c(C#N)cc1-c1ccccc1 (stereo not shown) [Compound 119, 2-(4-(furan-2-carbonyl)-3-methylpiperazin-1-yl)-6-isopropyl-5-phenylnicotinonitrile]	5 to 15 µM
CC(C)c1nc(N2CCN(C(=O)c3ccoc3)C(C)C2)c(C#N)cc1-c1ccccc1 (stereo not shown) [Compound 120, 2-(4-(furan-3-carbonyl)-3-methylpiperazin-1-yl)-6-isopropyl-5-phenylnicotinonitrile]	1 to 5 µM
CC(C)c1cc(-c2ccccc2)c(C#N)c(N2CCN(C(=O)Cc3ccccc3)C(C)C2)n1 (stereo not shown) [Compound 121, 6-isopropyl-2-(3-methyl-4-(2-phenylacetyl)piperazin-1-yl)-4-phenylnicotinonitrile]	5 to 15 µM
N#Cc1cc(-c2ccccc2)c(-c2ccccc2)nc1N1CCN(C(=O)c2ccoc2)CC1 [Compound 122, 2-(4-(furan-3-carbonyl)piperazin-1-yl)-5,6-diphenylnicotinonitrile]	5 to 15 µM
N#Cc1cc(-c2ccccc2)c(-c2ccccc2)nc1N1CCN(C(=O)Cc2ccccc2)CC1 [Compound 123, 5,6-diphenyl-2-(4-(2-phenylacetyl)piperazin-1-yl)nicotinonitrile]	5 to 15 µM
CC(C)c1nc(N2CCN(C(=O)c3ccoc3)CC2)c(C#N)cc1-c1ccccc1 [Compound 124, 2-(4-(furan-3-carbonyl)piperazin-1-yl)-6-isopropyl-5-phenylnicotinonitrile]	5 to 15 µM
CC(C)c1nc(N2CCN(C(=O)c3c[nH]c4ccccc34)CC2)c(C#N)cc1-c1ccccc1 [Compound 125, 2-(4-(1H-indole-3-carbonyl)piperazin-1-yl)-6-isopropyl-5-phenylnicotinonitrile]	5 to 15 µM
CC(C)c1nc(N2CCN(C(=O)Cc3ccccc3)CC2)c(C#N)cc1-c1ccccc1 [Compound 126, 6-isopropyl-5-phenyl-2-(4-(2-phenylacetyl)piperazin-1-yl)nicotinonitrile]	1 to 5 µM
CC(C)c1cc(-c2cccc(F)c2)c(C#N)c(N2CCN(C(=O)c3ccco3)C(C)C2)n1 (stereo not shown) [Compound 127, 4-(3-fluorophenyl)-2-(4-(furan-2-carbonyl)-3-methylpiperazin-1-yl)-6-isopropylnicotinonitrile]	5 to 15 µM
CC(C)c1cc(-c2cccc(F)c2)c(C#N)c(N2CCN(C(=O)c3ccoc3)C(C)C2)n1 (stereo not shown) [Compound 128, 4-(3-fluorophenyl)-2-(4-(furan-3-carbonyl)-3-methylpiperazin-1-yl)-6-isopropylnicotinonitrile]	1 to 5 µM
CC(C)c1cc(-c2cccc(F)c2)c(C#N)c(N2CCN(C(=O)c3c[nH]c4ccccc34)C(C)C2)n1 (stereo not shown) [Compound 129, 2-(4-(1H-indole-3-carbonyl)-3-methylpiperazin-1-yl)-4-(3-fluorophenyl)-6-isopropylnicotinonitrile]	5 to 15 µM
CC(C)c1cc(-c2ccccc2)c(C#N)c(N2CCN(C(=O)c3ccoc3)[C@H](C)C2)n1 [Compound 130, (R)-2-(4-(furan-3-carbonyl)-3-methylpiperazin-1-yl)-6-isopropyl-4-phenylnicotinonitrile]	1 to 5 µM
CC(C)c1cc(-c2ccccc2)c(C#N)c(N2CCN(C(=O)Cc3ccccc3)[C@H](C)C2)n1 [Compound 131, (R)-6-isopropyl-2-(3-methyl-4-(2-phenylacetyl)piperazin-1-yl)-4-phenylnicotinonitrile]	1 to 5 µM
CC(C)c1cc(-c2ccccc2)c(C#N)c(N2CCN(C(=O)c3ccoc3)[C@@H](C)C2)n1 [Compound 132, (S)-2-(4-(furan-3-carbonyl)-3-methylpiperazin-1-yl)-6-isopropyl-4-phenylnicotinonitrile]	1 to 5 µM
CC(C)c1cc(-c2ccccc2)c(C#N)c(N2CCN(C(=O)Cc3ccccc3)[C@@H](C)C2)n1 [Compound 133, (S)-6-isopropyl-2-(3-methyl-4-(2-phenylacetyl)piperazin-1-yl)-4-phenylnicotinonitrile]	1 to 5 µM
CC(C)c1cc(-c2cccc(F)c2)c(C#N)c(N2CC(C)N(C(=O)c3ccoc3)C(C)C2)n1 (stereo not shown) [Compound 134, 4-(3-fluorophenyl)-2-(4-(furan-3-carbonyl)-3,5-dimethylpiperazin-1-yl)-6-isopropylnicotinonitrile]	1 to 5 µM
CC(C)c1cc(-c2cccc(F)c2)c(C#N)c(N2CC(C)N(C(=O)Cc3ccccc3)C(C)C2)n1 (stereo not shown) [Compound 135, 2-(3,5-dimethyl-1-(2-phenylacetyl)piperazin-1-yl)-4-(3-fluorophenyl)-6-isopropylnicotinonitrile]	1 to 5 µM
CC(C)c1cc(-c2cccc(F)c2)c(C#N)c(N2CC(C)N(C(=O)c3ccco3)C(C)C2)n1 (stereo not shown) [Compound 136, 4-(3-fluorophenyl)-2-(4-(furan-2-carbonyl)-3,5-dimethylpiperazin-1-yl)-6-isopropylnicotinonitrile]	5 to 15 µM
